Data published in ChEMBL document CHEMBL1201862, “PubChem BioAssay data set” (2004).
Where “and” joins values, the source holds several entries; their conditions need not be identical. Equal entries are not always repeated. Each block holds one compound with its values, some of them ahead of it. Calls of active or inactive are those of the source.

What was measured:
Estrogen receptor = Estrogen receptor (Homo sapiens, UniProt P03372);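 also: potency for inhibiting coactivator peptide recruitment to the receptor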
[1] = biological target: Glyceraldehyde-3-phosphate dehydrogenase (Homo sapiens, UniProt P04406)
Bcl-2-related protein A1 [2] = biological target: T1, Bcl-2-related protein A1 (Mus musculus, UniProt Q07440); test: small-molecule antagonists of Bfl-1/BH3 interaction – biochemical, TR-FRET, mouse Bfl-1, confirmation (AID 621);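 also: TR-FRET binding of GST-Bfl-1 to FITC-labelled Bid peptide via terbium antibody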
T1 sequence (Q07440 whole entry): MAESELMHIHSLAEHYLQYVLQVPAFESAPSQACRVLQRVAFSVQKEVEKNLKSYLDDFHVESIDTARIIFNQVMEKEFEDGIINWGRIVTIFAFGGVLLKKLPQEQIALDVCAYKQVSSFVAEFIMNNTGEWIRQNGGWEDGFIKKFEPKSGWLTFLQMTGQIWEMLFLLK

Bcl-2-related protein A1 [3] = biological target: T1, Bcl-2-related protein A1; test: Bfl-1 binding inhibitors, SAR follow-up, biochemical, fluorescence polarization (AID 1070)
[4] = fluconazole-exposed Candida albicans growth modulators – fluorescence, retest, confirmation (AID 2467); type: functional, cell-based
[5] = Trypanosoma cruzi growth suppression in host cells – NIH3T3 host cells, beta-gal luminescence, confirmation (AID 2044); type: functional, cell-based;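 also: intracellular parasites grown in NIH/3T3 mouse fibroblasts as host cells; luminescent beta-galactosidase reporter signal from transgenic T. cruzi replicating inside host cells; inhibitors lower the luminescence signal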
[6] = NIH3T3 cell viability loss – ATP luminescence, mouse fibroblasts, counter-screen, dose response (AID 2010); type: functional, cell-based;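 also: cells exposed to compound for about 90 hours before reading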
[7] = biological target: T2, Ubiquitin-conjugating enzyme E2 N (Homo sapiens, UniProt P61088); type: functional;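 also: Dose-response confirmation in a TR-FRET assay detecting UBC13-driven polyubiquitin chain formation, inhibition measured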
T2 sequence (P61088 whole entry): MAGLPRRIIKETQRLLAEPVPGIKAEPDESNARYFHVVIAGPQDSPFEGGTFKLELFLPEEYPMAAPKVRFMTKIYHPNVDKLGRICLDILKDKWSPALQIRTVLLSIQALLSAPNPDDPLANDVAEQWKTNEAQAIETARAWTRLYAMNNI

[8] = biological target: T3, Microphthalmia-associated transcription factor (Homo sapiens, UniProt O75030); test: reducers of TRPM1 reporter luminescence, concentration series – cell-based, SK-MEL-5, cherry-picked, set 3, MITF inhibitor project, dose response (AID 493073); type: functional;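 also: SK-MEL-5 melanoma cells with luciferase driven by the MITF target TRPM1 promoter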
T3 sequence (O75030 whole entry): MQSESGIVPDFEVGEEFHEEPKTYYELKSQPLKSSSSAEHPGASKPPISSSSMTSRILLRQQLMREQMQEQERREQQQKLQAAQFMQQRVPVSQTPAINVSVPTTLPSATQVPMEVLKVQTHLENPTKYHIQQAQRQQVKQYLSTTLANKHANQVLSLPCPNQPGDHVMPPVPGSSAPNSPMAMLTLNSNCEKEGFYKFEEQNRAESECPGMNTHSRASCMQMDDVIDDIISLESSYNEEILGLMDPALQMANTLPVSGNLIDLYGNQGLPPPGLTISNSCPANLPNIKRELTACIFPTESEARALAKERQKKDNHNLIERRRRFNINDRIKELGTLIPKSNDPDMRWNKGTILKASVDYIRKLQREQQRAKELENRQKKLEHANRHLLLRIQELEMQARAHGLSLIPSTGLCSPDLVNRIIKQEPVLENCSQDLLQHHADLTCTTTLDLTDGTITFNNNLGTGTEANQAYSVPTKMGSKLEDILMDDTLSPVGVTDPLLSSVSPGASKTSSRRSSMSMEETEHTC

A-375 = test: MITF: Counter assay: A375 proliferation Measured in Cell-Based System Using Plate Reader - 2084-03_Inhibitor_Dose_DryPowder_Activity. [Related pubchem assays (depositor defined):AID488944]; type: functional; conditions: Homo sapiens
INS1 = test: INS-1E survival protection against cytokine death – cell-based, luminescence, retest, dose response (AID 449756); type: functional;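 also: cell death triggered by IL-1 beta plus TNF-alpha plus IFN-gamma mixture; protective hits raise ATP signal compared with cytokine alone wells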
cells [9] = test: cells
[10] = biological target: Peroxisome proliferator-activated receptor gamma/Nuclear receptor coactivator 2 (Homo sapiens, UniProt P37231); type: functional;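 also: agonist potency for raising coactivator recruitment to the receptor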
[11] = biological target: Peroxisome proliferator-activated receptor gamma/Nuclear receptor coactivator 1 (Homo sapiens, UniProt P37231); type: functional;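 also: agonist potency as compounds enhance coactivator SRC-1 recruitment to PPARgamma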
[12] = biological target: Peroxisome proliferator-activated receptor gamma/Nuclear receptor coactivator 3 (Homo sapiens, UniProt P37231); type: functional;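 also: agonist potency for raising coactivator recruitment to the receptor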
BJ [13] = test: BJ-TERT fibroblast viability loss – cell-based, RAS-independent, luminescence, dose response (AID 1933); type: functional; conditions: Homo sapiens
BJ [14] = test: cells; type: functional, cell-based; conditions: Homo sapiens
[15] = biological target: Protein-tyrosine kinase 2-beta (Homo sapiens, UniProt Q14289);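 also: potency of inhibitors of PYK2 kinase phosphorylation of poly-GT substrate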
BJ [16] = test: BJ-TERT-LT-ST fibroblast viability loss – cell-based, RAS-independent, luminescence, dose response (AID 1935); type: functional; conditions: Homo sapiens;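 also: BJ fibroblasts immortalized with TERT plus LT and ST oncogenes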
[17] = DRD fibroblast viability loss – cell-based, non-viral oncogenic, luminescence, dose response (AID 1934); type: functional; conditions: Homo sapiens
[18] = biological target: T4, Tyrosine-protein phosphatase non-receptor type 11 (Homo sapiens, UniProt Q06124); test: PTPN11 enzyme inhibitors – biochemical, selectivity assay for STEP inhibitor project, dose response (AID 602367); type: functional; conditions: read-out: IC50_Mean
T4 sequence (Q06124 whole entry): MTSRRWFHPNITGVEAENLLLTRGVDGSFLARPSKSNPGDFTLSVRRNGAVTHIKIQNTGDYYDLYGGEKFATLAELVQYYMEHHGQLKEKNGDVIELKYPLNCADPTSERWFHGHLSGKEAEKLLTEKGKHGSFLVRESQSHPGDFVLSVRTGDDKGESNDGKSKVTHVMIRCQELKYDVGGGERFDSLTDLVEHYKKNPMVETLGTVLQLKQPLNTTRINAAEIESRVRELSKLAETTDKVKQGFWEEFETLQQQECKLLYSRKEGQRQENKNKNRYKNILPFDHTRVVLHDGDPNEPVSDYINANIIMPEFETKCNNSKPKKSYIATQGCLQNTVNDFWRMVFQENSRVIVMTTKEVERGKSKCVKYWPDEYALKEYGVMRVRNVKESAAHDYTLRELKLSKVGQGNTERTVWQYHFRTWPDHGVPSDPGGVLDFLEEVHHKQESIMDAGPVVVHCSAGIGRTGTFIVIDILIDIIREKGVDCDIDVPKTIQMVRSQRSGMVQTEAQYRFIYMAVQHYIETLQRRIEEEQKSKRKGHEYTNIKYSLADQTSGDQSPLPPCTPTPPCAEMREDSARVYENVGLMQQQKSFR

Melanocortin receptor 4 = Melanocortin receptor 4 (Homo sapiens, UniProt P32245); type: functional, cell-based;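 also: Cell-based assay with luminescence read-out, confirmatory dose-response testing for agonist activity of biased ligands at MC4R; human U2OS cells with tagged receptor and beta-arrestin; potency of agonists that increase receptor coupling to beta-arrestin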
[19] = biological target: T5, Tyrosine-protein phosphatase non-receptor type 5 (Homo sapiens, UniProt P54829); test: PTPN5 enzyme inhibition – biochemical, fluorescence intensity, uHTS hits, confirmation (AID 602372); type: functional; conditions: read-out: IC50_Mean
T5 sequence (P54829 whole entry): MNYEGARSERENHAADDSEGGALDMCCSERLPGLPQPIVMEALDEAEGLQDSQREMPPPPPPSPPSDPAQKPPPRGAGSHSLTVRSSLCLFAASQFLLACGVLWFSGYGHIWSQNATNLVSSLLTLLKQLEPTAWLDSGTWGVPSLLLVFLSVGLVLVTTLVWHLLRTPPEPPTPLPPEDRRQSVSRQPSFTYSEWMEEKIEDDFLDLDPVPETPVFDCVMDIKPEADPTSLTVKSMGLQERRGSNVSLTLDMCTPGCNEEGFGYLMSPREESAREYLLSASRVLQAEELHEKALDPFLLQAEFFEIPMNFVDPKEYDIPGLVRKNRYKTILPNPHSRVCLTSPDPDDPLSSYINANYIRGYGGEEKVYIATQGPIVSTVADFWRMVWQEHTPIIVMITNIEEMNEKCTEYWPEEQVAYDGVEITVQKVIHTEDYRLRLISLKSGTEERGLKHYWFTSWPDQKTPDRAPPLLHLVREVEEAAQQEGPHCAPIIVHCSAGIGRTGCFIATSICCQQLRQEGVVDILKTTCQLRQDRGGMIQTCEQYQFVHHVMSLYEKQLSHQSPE

[20] = biological target: Dual specificity protein phosphatase 3 (Homo sapiens, UniProt P51452); test: VHR phosphatase inhibition, dose response, selectivity assay for STEP inhibitor project, biochemical (AID 602374); type: functional; conditions: read-out: IC50_Mean
Estrogen receptor beta [21] = biological target: T6, Estrogen receptor beta (Homo sapiens, UniProt Q92731);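 also: recombinant ER-beta bound to coactivator SRC1 peptide in presence of estradiol agonist; inhibitors block coactivator peptide binding and lower the FRET signal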
Estrogen receptor beta [22] = biological target: T6, Estrogen receptor beta; test: blockers of SRC-3 recruitment to ERβ – biochemical, ELISA, streptavidin-HRP readout, orthogonal assay, confirmation (AID 1060)
[23] = biological target: T7, Carboxy-terminal domain RNA polymerase II polypeptide A small phosphatase 1 (Homo sapiens, UniProt Q9GZU7); test: CTDSP1 inhibitors, concentration-response, biochemical, absorbance readout, ultra-high-throughput screen actives (AID 540297); type: functional
T7 sequence (Q9GZU7 whole entry): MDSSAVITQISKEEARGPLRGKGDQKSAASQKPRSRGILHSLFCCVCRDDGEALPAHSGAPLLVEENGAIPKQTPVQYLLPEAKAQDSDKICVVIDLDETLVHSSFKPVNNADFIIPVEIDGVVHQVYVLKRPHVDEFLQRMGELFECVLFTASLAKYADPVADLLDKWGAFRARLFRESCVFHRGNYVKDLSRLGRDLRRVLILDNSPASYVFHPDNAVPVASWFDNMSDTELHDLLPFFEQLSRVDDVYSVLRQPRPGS

Galanin receptor type 3 = biological target: T8, Galanin receptor type 3 (Homo sapiens, UniProt O60755); test: Fluorescence-based cell-based primary high throughput dose response assay to identify antagonists of the Galanin Receptor 3 (GalR3).; type: functional
T8 sequence (O60755 whole entry): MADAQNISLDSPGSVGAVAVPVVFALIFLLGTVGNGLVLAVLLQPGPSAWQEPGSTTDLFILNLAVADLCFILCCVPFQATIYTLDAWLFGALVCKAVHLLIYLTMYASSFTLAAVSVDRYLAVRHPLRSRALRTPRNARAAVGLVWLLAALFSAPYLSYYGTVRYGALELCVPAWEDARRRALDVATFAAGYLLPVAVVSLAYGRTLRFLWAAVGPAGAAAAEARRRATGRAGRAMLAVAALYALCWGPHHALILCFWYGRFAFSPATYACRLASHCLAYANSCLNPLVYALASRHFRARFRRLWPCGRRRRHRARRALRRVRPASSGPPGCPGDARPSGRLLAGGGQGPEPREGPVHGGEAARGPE

cells [24] = type: functional, cell-based; conditions: HEK-CNG
[25] = biological target: Epstein-Barr nuclear antigen 1 (Epstein-Barr virus (strain B95-8) (HHV-4) (Human herpesvirus 4), UniProt P03211); test: inhibition of EBV nuclear antigen 1 DNA binding – biochemical, fluorescence polarization, 1536-well, dose response (AID 2381); design: species or system human gammaherpesvirus 4;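 also: fluorescence polarization of a Cy5 DNA probe bound by EBNA-1 protein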
[26] = biological target: Lytic switch protein BZLF1 (Epstein-Barr virus (strain B95-8) (HHV-4) (Human herpesvirus 4), UniProt P03206); test: inhibition of BZLF1 ZTA DNA binding – biochemical, fluorescence polarization, Epstein-Barr virus, 1536-well, counter-screen for EBNA-1 inhibitor project, dose response (AID 2377); design: species or system human gammaherpesvirus 4;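 also: fluorescence polarization of Cy5-labelled ZRE DNA probe bound by purified Zta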
Sequence of Lytic switch protein BZLF1 (P03206 whole entry): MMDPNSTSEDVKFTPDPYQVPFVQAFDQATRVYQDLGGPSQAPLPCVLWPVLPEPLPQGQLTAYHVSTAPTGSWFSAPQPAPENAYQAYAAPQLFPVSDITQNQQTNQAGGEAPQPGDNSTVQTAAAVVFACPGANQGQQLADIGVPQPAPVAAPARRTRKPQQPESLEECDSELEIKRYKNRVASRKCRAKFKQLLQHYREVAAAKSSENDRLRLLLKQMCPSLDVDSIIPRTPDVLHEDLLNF

T6 sequence (Q92731 whole entry): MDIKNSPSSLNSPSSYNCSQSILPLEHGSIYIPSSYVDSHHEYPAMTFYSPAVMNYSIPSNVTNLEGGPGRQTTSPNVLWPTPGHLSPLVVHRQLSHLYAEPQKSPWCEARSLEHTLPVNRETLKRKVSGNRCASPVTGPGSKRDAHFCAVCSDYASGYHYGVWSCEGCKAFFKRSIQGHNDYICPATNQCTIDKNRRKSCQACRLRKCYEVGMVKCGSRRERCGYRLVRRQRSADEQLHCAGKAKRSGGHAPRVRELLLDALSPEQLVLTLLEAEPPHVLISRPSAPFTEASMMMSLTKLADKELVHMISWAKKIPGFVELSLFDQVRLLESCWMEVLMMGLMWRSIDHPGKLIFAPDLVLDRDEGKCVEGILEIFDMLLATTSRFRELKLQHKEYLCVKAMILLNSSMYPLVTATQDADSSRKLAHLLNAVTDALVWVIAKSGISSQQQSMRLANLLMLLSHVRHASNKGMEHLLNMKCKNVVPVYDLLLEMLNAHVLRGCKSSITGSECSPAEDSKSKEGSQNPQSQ
Sequence of Estrogen receptor (P03372 whole entry): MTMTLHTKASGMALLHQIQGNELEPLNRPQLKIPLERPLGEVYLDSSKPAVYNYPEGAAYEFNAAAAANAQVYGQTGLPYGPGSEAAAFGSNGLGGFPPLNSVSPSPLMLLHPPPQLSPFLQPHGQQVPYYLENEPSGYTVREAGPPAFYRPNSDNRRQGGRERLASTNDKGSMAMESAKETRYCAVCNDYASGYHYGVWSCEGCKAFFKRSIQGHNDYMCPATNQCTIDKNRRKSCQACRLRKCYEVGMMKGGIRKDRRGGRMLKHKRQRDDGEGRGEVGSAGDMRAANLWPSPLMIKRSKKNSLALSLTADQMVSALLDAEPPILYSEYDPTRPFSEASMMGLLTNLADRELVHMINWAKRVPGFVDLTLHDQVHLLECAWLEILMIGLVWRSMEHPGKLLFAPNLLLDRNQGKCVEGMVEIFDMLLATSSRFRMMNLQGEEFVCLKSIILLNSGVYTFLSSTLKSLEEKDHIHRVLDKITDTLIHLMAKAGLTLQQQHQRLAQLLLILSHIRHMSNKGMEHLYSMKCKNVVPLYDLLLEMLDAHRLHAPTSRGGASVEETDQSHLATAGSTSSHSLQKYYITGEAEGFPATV
Sequence of Protein-tyrosine kinase 2-beta (Q14289 whole entry): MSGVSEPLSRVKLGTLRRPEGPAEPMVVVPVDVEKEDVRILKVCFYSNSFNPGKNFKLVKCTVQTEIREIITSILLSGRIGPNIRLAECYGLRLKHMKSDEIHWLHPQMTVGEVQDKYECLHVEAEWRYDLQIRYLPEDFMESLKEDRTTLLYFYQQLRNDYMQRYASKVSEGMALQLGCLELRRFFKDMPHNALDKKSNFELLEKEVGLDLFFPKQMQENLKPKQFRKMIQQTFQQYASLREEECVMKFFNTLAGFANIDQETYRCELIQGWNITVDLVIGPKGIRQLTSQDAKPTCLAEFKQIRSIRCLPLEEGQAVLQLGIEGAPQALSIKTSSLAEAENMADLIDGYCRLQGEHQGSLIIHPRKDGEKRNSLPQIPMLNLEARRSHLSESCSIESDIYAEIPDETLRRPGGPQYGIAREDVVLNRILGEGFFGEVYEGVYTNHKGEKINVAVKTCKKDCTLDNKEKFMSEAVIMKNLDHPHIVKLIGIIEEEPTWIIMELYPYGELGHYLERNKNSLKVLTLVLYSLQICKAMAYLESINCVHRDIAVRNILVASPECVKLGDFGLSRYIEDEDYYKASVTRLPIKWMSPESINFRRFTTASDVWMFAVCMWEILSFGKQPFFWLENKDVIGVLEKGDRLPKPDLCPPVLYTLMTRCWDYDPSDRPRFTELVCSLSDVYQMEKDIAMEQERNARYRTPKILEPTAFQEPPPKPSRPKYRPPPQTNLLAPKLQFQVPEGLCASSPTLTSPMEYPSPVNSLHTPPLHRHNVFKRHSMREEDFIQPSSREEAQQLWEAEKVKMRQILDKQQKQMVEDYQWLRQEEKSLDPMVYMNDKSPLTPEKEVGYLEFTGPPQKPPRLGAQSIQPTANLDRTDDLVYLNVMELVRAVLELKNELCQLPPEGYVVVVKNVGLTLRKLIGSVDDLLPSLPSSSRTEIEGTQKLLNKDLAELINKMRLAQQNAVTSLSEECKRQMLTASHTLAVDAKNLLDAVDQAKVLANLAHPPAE
Sequence of Epstein-Barr nuclear antigen 1 (P03211 whole entry): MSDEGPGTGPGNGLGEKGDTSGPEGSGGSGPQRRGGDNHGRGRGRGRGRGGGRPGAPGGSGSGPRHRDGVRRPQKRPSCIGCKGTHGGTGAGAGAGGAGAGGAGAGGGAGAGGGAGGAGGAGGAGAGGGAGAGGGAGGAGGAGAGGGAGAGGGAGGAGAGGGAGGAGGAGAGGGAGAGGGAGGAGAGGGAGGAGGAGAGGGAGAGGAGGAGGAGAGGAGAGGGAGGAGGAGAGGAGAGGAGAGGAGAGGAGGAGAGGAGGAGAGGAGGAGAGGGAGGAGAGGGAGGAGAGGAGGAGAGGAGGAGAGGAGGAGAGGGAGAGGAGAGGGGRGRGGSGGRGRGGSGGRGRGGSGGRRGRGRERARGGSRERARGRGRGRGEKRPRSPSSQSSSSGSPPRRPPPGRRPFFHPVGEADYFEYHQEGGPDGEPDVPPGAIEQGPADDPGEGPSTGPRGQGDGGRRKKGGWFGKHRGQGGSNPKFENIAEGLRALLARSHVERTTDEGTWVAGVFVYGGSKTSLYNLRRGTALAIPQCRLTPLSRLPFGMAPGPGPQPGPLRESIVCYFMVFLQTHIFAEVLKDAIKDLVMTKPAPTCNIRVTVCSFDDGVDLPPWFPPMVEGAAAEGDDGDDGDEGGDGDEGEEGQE
Sequence of Glyceraldehyde-3-phosphate dehydrogenase (P04406 whole entry): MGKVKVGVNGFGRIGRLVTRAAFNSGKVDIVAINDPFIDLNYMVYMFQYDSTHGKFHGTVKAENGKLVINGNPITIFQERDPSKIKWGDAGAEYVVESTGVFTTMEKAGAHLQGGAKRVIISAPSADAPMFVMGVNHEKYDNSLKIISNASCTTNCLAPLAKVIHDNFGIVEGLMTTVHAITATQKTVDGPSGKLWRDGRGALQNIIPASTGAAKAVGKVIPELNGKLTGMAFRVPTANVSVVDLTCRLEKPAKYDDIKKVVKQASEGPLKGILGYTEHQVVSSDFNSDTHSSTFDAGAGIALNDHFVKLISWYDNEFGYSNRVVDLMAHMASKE
Sequence of Melanocortin receptor 4 (P32245 whole entry): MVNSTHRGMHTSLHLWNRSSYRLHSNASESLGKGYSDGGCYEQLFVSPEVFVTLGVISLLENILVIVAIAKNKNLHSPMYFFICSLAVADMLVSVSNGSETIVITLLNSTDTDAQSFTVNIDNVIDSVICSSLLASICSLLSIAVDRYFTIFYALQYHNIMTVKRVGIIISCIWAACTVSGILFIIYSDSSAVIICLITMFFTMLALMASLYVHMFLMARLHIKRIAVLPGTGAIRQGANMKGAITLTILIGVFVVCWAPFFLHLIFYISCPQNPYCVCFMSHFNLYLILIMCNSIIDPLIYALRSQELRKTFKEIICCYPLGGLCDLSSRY
Sequence of Dual specificity protein phosphatase 3 (P51452 whole entry): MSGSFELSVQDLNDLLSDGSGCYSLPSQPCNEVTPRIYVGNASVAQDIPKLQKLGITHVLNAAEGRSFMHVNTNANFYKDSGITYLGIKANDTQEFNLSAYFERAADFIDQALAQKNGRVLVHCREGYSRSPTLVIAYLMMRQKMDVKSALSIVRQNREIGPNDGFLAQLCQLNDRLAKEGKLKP

IC50 (Estrogen receptor): > 50 µM (not active)
Compound: NC(=O)c1ccc(F)cc1

IC50 [1]: > 100 µM (not active) | IC50 (Bcl-2-related protein A1 [2]): > 100 µM (not active) | IC50 (Bcl-2-related protein A1 [3]): > 100 µM (not active)
Compound: CN1CCN(C2CC(=O)N(c3ccc(Cl)c(Cl)c3)C2=O)CC1 (stereo not given)

Compound: CC1CCC(C(C)C)C(OC(=O)Cn2c(-c3ccc(Br)cc3)[n+](C)c3ccccc32)C1 (stereo not given)
EC50 [4]: 227 nM (active) and 290 nM (active) | EC50 [5]: < 0.1 µM (active) | EC50 [6]: > 60 µM (not active) | IC50 [7]: > 20 µM (inactive) | AC50 [8]: 7.12 µM (active) | AC50 (A-375): 36.8 µM (active) | AC50 (INS1; Rattus norvegicus, INS1): 3.63 µM (active) | AC50 (INS1; ins1): 2.8 µM (active) | EC50 (cells [9]): 0.409 µM (active)

IC50 (Estrogen receptor): 21.9 µM (active)
Compound: COc1ccc(C2C=C(c3ccc(Cl)cc3)Nc3nc(NC(C)=O)nn32)cc1 (stereo not given)

Compound: COc1ccc(-n2nc(C(=O)NCC(=O)Nc3ccccn3)c3ccccc3c2=O)cc1Cl
EC50 [10]: 19.2 µM (not active) | EC50 [11]: 25.8 µM (not active) | EC50 [12]: 37.7 µM (not active) | EC50 (BJ [13]): 31.5 µM (active) | EC50 (BJ [14]): 21.6 µM (active) | IC50 [15]: > 69.5 µM (not active) | EC50 (BJ [16]): > 150 µM (not active) | EC50 [17]: 28.5 µM (active) | IC50 [18]: 1.98 µM (active) | EC50 (Melanocortin receptor 4): > 89.2 µM (inactive) | IC50 [19]: 42.3 µM (inactive) | IC50 [20]: 3.14 µM (active)

Compound: O=c1cc(CSc2nnc(-c3cccs3)n2Cc2ccccc2)nc2sc3ccccc3n12
IC50 (Estrogen receptor beta [21]): < 1.56 µM (active) | IC50 (Estrogen receptor beta [22]): 19.3 µM (not active) | IC50 [23]: 5.42 µM (active) | IC50 (Galanin receptor type 3): 0.482 µM (active) | EC50 (cells [24]): > 29.9 µM (inactive)

IC50 [15]: > 69.5 µM (not active)
Compound: c1cc2ccc3ccc(CN4CCOCC4)c4ccc(c1)c2c34

IC50 (Bcl-2-related protein A1 [2]): > 100 µM (not active) | IC50 (Bcl-2-related protein A1 [3]): > 100 µM (not active)
Compound: COc1ncccc1-c1nnn(-c2ccccc2)n1

IC50 (Estrogen receptor beta [21]): 8.83 µM (active) | IC50 (Estrogen receptor beta [22]): 19.2 µM (not active)
Compound: Cc1ccc(S(=O)(=O)Cc2ccc(C(=O)N3CCN(Cc4ccccc4)CC3)o2)cc1

IC50 [25]: 16.4 µM (not active) | IC50 [26]: > 111 µM (not active)
Compound: O=C(Cn1nnc(-c2ccccc2NC(=O)c2ccccc2)n1)Nc1ccc2c(c1)OCCO2

IC50 [25]: 7.23 µM (active) | IC50 [26]: > 111 µM (not active)
Compound: CCOc1ccc(NC(=O)C(=O)N/N=C\c2ccc(CNS(=O)(=O)c3ccccc3)o2)cc1
